Measurements as given in patent US10457655B2, “Compounds and compositions for inhibition of FASN” (FORMA Therapeutics, Inc., priority 2013, dated 2019).
pIC50: −log10 of the molar value.

Each compound was assayed against FASN enzyme (Homo sapiens, UniProt P49327) (assay: Enzymatic Assay for FASN Inhibitors). Settings: not given.
Chain of FASN enzyme (P49327 whole entry): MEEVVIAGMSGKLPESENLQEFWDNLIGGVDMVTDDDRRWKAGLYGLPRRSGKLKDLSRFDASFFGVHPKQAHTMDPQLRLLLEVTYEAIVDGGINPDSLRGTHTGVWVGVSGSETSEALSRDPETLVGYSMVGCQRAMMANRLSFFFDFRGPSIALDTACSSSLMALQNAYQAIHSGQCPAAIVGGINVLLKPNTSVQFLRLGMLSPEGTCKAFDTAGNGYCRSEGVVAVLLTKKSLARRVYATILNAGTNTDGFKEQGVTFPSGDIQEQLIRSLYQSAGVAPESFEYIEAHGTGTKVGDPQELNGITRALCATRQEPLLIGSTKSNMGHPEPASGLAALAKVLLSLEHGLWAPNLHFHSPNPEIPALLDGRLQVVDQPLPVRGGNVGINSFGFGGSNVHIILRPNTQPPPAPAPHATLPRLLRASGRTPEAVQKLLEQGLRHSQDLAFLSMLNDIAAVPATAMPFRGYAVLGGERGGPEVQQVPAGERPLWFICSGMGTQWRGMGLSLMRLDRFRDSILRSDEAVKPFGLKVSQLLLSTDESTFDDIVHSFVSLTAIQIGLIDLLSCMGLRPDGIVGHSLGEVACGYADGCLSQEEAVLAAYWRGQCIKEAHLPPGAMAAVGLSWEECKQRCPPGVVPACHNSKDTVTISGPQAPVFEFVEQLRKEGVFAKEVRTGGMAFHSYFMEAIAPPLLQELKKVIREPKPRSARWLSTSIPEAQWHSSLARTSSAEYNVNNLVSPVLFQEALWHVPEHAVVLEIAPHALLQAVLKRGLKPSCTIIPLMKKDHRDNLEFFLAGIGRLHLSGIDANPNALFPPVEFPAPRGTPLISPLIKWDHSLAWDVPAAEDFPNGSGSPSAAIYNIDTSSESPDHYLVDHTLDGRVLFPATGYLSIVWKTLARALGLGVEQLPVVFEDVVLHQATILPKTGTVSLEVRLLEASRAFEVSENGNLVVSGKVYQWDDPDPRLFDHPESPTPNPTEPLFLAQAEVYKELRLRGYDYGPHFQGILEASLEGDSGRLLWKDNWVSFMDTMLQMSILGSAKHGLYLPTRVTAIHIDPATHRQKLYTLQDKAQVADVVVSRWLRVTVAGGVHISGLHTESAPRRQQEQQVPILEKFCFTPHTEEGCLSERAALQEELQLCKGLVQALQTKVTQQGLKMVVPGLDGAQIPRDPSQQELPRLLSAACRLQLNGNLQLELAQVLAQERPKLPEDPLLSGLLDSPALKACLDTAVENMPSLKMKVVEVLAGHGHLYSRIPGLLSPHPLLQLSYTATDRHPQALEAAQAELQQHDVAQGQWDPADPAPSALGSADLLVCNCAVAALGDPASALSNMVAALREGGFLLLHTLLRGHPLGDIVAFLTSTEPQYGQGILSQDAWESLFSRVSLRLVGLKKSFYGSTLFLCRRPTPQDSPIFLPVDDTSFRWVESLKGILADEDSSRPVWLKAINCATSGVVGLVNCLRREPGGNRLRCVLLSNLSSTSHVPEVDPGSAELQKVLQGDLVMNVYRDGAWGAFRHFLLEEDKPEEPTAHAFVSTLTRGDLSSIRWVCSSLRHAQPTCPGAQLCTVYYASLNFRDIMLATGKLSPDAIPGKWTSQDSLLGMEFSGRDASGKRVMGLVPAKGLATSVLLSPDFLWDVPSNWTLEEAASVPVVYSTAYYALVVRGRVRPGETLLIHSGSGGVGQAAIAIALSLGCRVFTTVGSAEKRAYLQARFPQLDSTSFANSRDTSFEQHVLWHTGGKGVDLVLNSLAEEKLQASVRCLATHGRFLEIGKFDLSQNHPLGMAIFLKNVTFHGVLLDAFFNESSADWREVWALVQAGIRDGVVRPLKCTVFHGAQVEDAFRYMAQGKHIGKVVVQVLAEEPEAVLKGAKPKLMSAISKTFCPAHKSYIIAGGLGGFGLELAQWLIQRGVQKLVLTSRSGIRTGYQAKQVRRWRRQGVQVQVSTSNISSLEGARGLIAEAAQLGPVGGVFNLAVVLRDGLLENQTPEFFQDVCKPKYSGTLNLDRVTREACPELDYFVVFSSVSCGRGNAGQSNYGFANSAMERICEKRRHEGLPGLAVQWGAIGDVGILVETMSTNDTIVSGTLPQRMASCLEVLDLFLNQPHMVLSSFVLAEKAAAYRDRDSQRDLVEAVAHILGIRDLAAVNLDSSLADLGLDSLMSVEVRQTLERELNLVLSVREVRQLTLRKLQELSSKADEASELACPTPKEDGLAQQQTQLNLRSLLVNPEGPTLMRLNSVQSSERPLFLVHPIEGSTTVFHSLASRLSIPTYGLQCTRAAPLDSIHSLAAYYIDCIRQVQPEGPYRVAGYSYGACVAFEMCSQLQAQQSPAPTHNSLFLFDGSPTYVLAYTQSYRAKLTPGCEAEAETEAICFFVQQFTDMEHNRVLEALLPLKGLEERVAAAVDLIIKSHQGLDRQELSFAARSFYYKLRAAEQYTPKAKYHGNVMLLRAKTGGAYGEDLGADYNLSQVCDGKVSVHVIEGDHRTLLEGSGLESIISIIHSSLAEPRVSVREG
Format: biochemical
Experimental: Assays were performed in a 384-well black plate to measure the inhibition of FASN activities by individual compounds herein disclosed. An aliquot of 250 nL of compound was incubated with 10 μL of 40 nM FASN enzyme in assay buffer (50 mM HEPES pH=7.3, 0.5 mM EDTA, 1 mM Ascorbate, 100 mM NaCl and 0.04% TritonX-100) in each well at 25° C. for 60 minutes. After the plate was centrifuged briefly, 10 μL of substrate mix (20 μM Acetyl-CoA, 60 μM Malonyl-CoA, and 100 μM NADPH in assay buffer) was added to each well. The reaction was maintained at 25° C. for 90 minutes. The reaction was then quenched by adding 10 μL of 90 μM 7-Diethylamino-3-(4′-Maleimidylpheynyl)-4-Methylcoumarin in 50/50 Ethanol/H2O solution. The assay plate was incubated at 25° C. for 15 minutes, and read on a plate reader with excitation and emission wavelength at 360 nm and 530 nm, respectively. The IC50 of a given compound was calculated by fitting the dose response curve with a four parameter logistic equation.
For `O=C(NC1CC1)c1cccc(-c2ccc(C(=O)N3CCN(C(=O)C4(O)CC4)CC3)cc2)c1` [N-cyclopropyl-3-[4-({4-[(1-hydroxycyclopropyl)carbonyl]piperazin-1-yl}carbonyl)phenyl]benzamide], the pIC50 was greater than 6.30. `O=C(c1ccc(-c2nc3ccc(Cl)cc3o2)c(Cl)c1)N1CCN(C(=O)C2(O)CC2)CC1` [1-{4-[3-chloro-4-(6-chloro-1,3-benzoxazol-2-yl)benzoyl]piperazine-1-carbonyl}cyclopropan-1-ol] was tested, and the pIC50 was greater than 6.30. `O=C(c1ccc(-c2cc3[nH]nnc3cc2F)cc1)N1CCN(C(=O)C2(O)CC2)CC1` showed a pIC50 greater than 6.30. `Cn1nc2ccc(-c3ccc(C(=O)N4CCN(C(=O)C5(O)CC5)CC4)cc3)cc2n1` showed a pIC50 greater than 6.30. With `Cn1cnc2cc(-c3ccc(C(=O)N4CCN(C(=O)C5(N)CCC5)CC4)cc3)ccc21` the pIC50 was greater than 6.30. Compound `O=C(c1ccc(-n2ccc3ccccc32)cc1)N1CCN(C(=O)C2(O)CC2)CC1` [1-{4-[4-(1H-indol-1-yl)benzoyl]piperazine-1-carbonyl}cyclopropan-1-ol] has a pIC50 greater than 6.30. Compound `O=C(c1ccc(N2CCc3[nH]c4ccccc4c3C2)cc1)N1CCN(C(=O)C2(O)CC2)CC1` [1-[4-(4-{1H,2H,3H,4H,5H-pyrido[4,3-b]indol-2-yl}benzoyl)piperazine-1-carbonyl]cyclopropan-1-ol] has a pIC50 greater than 6.30. `Cn1cc2ccc(-c3cc(F)c(C(=O)N4CCN(C(=O)C5(O)CC5)CC4)c(F)c3)cc2n1` [1-{4-[2,6-difluoro-4-(2-methyl-2H-indazol-6-yl)benzoyl]piperazine-1-carbonyl}cyclopropan-1-ol] was tested, and the pIC50 was greater than 6.30. `C[C@H]1CN(C(=O)c2ccc(N3CCc4cccnc4C3)cc2)CCN1C(=O)C1(O)CC1` [1-[(2S)-2-methyl-4-[4-(5,6,7,8-tetrahydro-1,7-naphthyridin-7-yl)benzoyl]piperazine-1-carbonyl]cyclopropan-1-ol] showed a pIC50 greater than 6.30. With `Cc1nn(C)c2ccc(-c3ccc(C(=O)N4CCN(C(=O)C5(N)CC5)CC4)c(F)c3)cc12` [1-{4-[4-(1,3-dimethyl-1H-indazol-5-yl)-2-fluorobenzoyl]piperazine-1-carbonyl}cyclopropan-1-amine] the pIC50 was greater than 6.30. Work on `O=C(c1ccc(-c2ccc3cc(F)ccc3n2)cc1)N1CCN(C(=O)C2(O)CC2)CC1` [1-[(4-{[4-(6-fluoroquinolin-2-yl)phenyl]carbonyl}piperazin-1-yl)carbonyl]cyclopropan-1-ol] yielded a pIC50 greater than 6.30. With `NC(=O)c1cc2cc(-c3ccc(C(=O)N4CCN(C(=O)C5(O)CC5)CC4)cc3)ccc2[nH]1` [5-[4-({4-[(1-hydroxycyclopropyl)carbonyl]piperazin-1-yl}carbonyl)phenyl]-1H-indole-2-carboxamide] the pIC50 was greater than 6.30. `O=C(c1ccc(-c2cnc3ccccc3c2)cc1)N1CCN(C(=O)C2(O)CC2)CC1` [1-[(4-{[4-(quinolin-3-yl)phenyl]carbonyl}piperazin-1-yl)carbonyl]cyclopropan-1-ol] showed a pIC50 greater than 6.30. `O=C(c1ccc(-c2ccc3c(c2)ncn3CCO)cc1)N1CCN(C(=O)C2(O)CC2)CC1` [1-(4-{4-[1-(2-hydroxyethyl)-1H-1,3-benzodiazol-5-yl]benzoyl}piperazine-1-carbonyl)cyclopropan-1-ol] showed a pIC50 greater than 6.30. `N#CC1(c2cccc(-c3ccc(C(=O)N4CCN(C(=O)C5(O)CC5)CC4)cc3)c2)CCC1` [1-(3-{4-[4-(1-hydroxycyclopropanecarbonyl)piperazine-1-carbonyl]phenyl}phenyl)cyclobutane-1-carbonitrile] gave a pIC50 greater than 6.30. Work on `O=C(c1ccc(-c2ncc3cc(F)ccc3n2)cc1)N1CCN(C(=O)C2(O)CC2)CC1` [1-{4-[4-(6-fluoroquinazolin-2-yl)benzoyl]piperazine-1-carbonyl}cyclopropan-1-ol] yielded a pIC50 greater than 6.30. Compound `N#CC1(c2cccc(-c3ccc(C(=O)N4CCN(C(=O)C5(O)CC5)CC4)cc3)c2)CCOCC1` [4-(3-{4-[4-(1-hydroxycyclopropanecarbonyl)piperazine-1-carbonyl]phenyl}phenyl)oxane-4-carbonitrile] has a pIC50 greater than 6.30. Work on `C[C@H]1CN(C(=O)c2ccc(-c3nc4ccc(F)cc4o3)cc2)CCN1C(=O)C1(O)CC1` yielded a pIC50 greater than 6.30. `O=C(c1ccc(-c2nc3ccccn3c2Cl)cc1)N1CCN(C(=O)C2(O)CC2)CC1` was tested, and the pIC50 was greater than 6.30. `Cc1nn(C)c2ccc(-c3ccc(C(=O)N4CCN(C(=O)C5(O)CC5)[C@@H](C)C4)cc3)cc12` [1-[(2S)-4-[4-(1,3-dimethyl-1H-indazol-5-yl)benzoyl]-2-methylpiperazine-1-carbonyl]cyclopropan-1-ol] gave a pIC50 greater than 6.30. `COc1ccc(OC(F)(F)F)cc1-c1ccc(C(=O)N2CCN(C(=O)C3(O)CC3)CC2)cc1` gave a pIC50 greater than 6.30. Work on `Cn1ccc2cc(-c3cnc(C(=O)N4CCN(C(=O)C5(O)CC5)CC4)cn3)ccc21` [1-[(4-{[5-(1-methyl-1H-indol-5-yl)pyrazin-2-yl]carbonyl}piperazin-1-yl)carbonyl]cyclopropan-1-ol] yielded a pIC50 greater than 6.30. In the case of `O=C(c1ccc(-c2ccc(Cl)cc2F)cc1)N1CCN(C(=O)C2(O)CC2)CC12CC2` [1-{4-[4-(4-chloro-2-fluorophenyl)benzoyl]-4,7-diazaspiro[2.5]octane-7-carbonyl}cyclopropan-1-ol], the pIC50 was greater than 6.30. `O=C(c1ccc(-c2cccc(NS(=O)(=O)CC3CCC3)c2)cc1)N1CCN(C(=O)C2(O)CC2)CC1` [1-cyclobutyl-N-(3-{4-[4-(1-hydroxycyclopropanecarbonyl)piperazine-1-carbonyl]phenyl}phenyl)methanesulfonamide] gave a pIC50 greater than 6.30. In the case of `Cn1ccc2cc(-c3ccc(C(=O)N4CCN(C(=O)C5(O)CC5)CC4)cn3)ccc21`, the pIC50 was greater than 6.30. `CNC(=O)c1cccc(-c2ccc(C(=O)N3CCN(C(=O)C4(O)CC4)CC3)cc2)n1` [6-{4-[4-(1-hydroxycyclopropanecarbonyl)piperazine-1-carbonyl]phenyl}-N-methylpyridine-2-carboxamide] was tested, and the pIC50 was greater than 6.30. Compound `Cn1cnc2cc(-c3ccc(C(=O)N4CCN(C(=O)C5CCO5)CC4)cc3)ccc21` (stereo not shown) [1-methyl-5-{4-[4-(oxetane-2-carbonyl)piperazine-1-carbonyl]phenyl}-1H-1,3-benzodiazole] has a pIC50 greater than 6.30. With `O=C(Nc1noc2ccc(-c3ccc(C(=O)N4CCN(C(=O)C5(O)CC5)CC4)cc3)cc12)C1CC1` [N-(5-{4-[4-(1-hydroxycyclopropanecarbonyl)piperazine-1-carbonyl]phenyl}-1,2-benzoxazol-3-yl)cyclopropanecarboxamide] the pIC50 was greater than 6.30.

Same assay, conditions: FASN enzymatic assay; Table 2-2
`COc1ccc2[nH]c(-c3ccc(C(=O)N4CCN(C(=O)C5(O)CC5)CC4)cc3)nc2c1` [1-[(4-{[4-(5-methoxy-1H-1,3-benzodiazol-2-yl)phenyl]carbonyl}piperazin-1-yl)carbonyl]cyclopropan-1-ol] was tested, and the pIC50 was 5.30 to 6.30. In the case of `COc1ccc2cc(-c3ccc(C(=O)N4CCN(C(=O)C5(O)CC5)CC4)nc3)ccc2n1` [1-[(4-{[5-(2-methoxyquinolin-6-yl)pyridin-2-yl]carbonyl}piperazin-1-yl)carbonyl]cyclopropan-1-ol], the pIC50 was 5.30 to 6.30. Compound `Cc1ccc(F)c(-c2ccc(C(=O)N3CCN(C(=O)C4(O)CC4)CC3)cc2)c1` [1-[(4-{[4-(2-fluoro-5-methylphenyl)phenyl]carbonyl}piperazin-1-yl)carbonyl]cyclopropan-1-ol] has a pIC50 of 5.30 to 6.30. `O=C(c1ccc(-c2ccc3nonc3c2)cc1)N1CCN(C(=O)C2(O)CC2)CC1` [1-[(4-{[4-(2,1,3-benzoxadiazol-5-yl)phenyl]carbonyl}piperazin-1-yl)carbonyl]cyclopropan-1-ol] gave a pIC50 of 5.30 to 6.30. For `O=C(c1ccc(-c2cccc(OC(F)(F)F)c2F)cc1)N1CCN(C(=O)C2(O)CC2)CC1` [1-{[4-({4-[2-fluoro-3-(trifluoromethoxy)phenyl]phenyl}carbonyl)piperazin-1-yl]carbonyl}cyclopropan-1-ol], the pIC50 was 5.30 to 6.30. `O=C(c1ccc(-c2cccc(C(F)(F)F)c2F)cc1)N1CCN(C(=O)C2(O)CC2)CC1` [1-{[4-({4-[2-fluoro-3-(trifluoromethyl)phenyl]phenyl}carbonyl)piperazin-1-yl]carbonyl}cyclopropan-1-ol] gave a pIC50 of 5.30 to 6.30. Work on `O=C(c1cnc(-c2cnc3ccccc3c2)cn1)N1CCN(C(=O)C2(O)CC2)CC1` [1-[(4-{[5-(quinolin-3-yl)pyrazin-2-yl]carbonyl}piperazin-1-yl)carbonyl]cyclopropan-1-ol] yielded a pIC50 of 5.30 to 6.30. With `O=C(c1ccc(-c2ccc(F)cc2C(F)(F)F)cc1)N1CCN(C(=O)C2(O)CC2)CC1` [1-{[4-({4-[4-fluoro-2-(trifluoromethyl)phenyl]phenyl}carbonyl)piperazin-1-yl]carbonyl}cyclopropan-1-ol] the pIC50 was 5.30 to 6.30.

Same assay, conditions: FASN enzymatic assay; Table 2-3
`O=C(c1ccc(-c2cc(CO)ccc2Cl)cc1)N1CCN(C(=O)C2(O)CC2)CC1` [1-{[4-({4-[2-chloro-5-(hydroxymethyl)phenyl]phenyl}carbonyl)piperazin-1-yl]carbonyl}cyclopropan-1-ol] showed a pIC50 of no more than 5.30. With `Cc1cccc(-c2ccc(C(=O)N3CCN(C(=O)C4(O)CC4)CC3)cc2)c1` [1-[(4-{[4-(3-methylphenyl)phenyl]carbonyl}piperazin-1-yl)carbonyl]cyclopropan-1-ol] the pIC50 was no more than 5.30. `COc1cc(F)c(F)cc1-c1ccc(C(=O)N2CCN(C(=O)C3(O)CC3)CC2)cc1` [1-[(4-{[4-(4,5-difluoro-2-methoxyphenyl)phenyl]carbonyl}piperazin-1-yl)carbonyl]cyclopropan-1-ol] gave a pIC50 of no more than 5.30. `Cc1ccc(-c2ccc(C(=O)N3CCN(C(=O)C4(O)CC4)CC3)cc2)cc1` [1-[(4-{[4-(4-methylphenyl)phenyl]carbonyl}piperazin-1-yl)carbonyl]cyclopropan-1-ol] was tested, and the pIC50 was no more than 5.30.
